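Protocol summary: plate cells (96-well), add compound at 5 concentrations, incubate 48 h, interpolate endpoints linearly. Here, GI50 denotes the concentration required for 50% inhibition of growth. TGI marks complete inhibition of growth.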
Legend:
Assay in all cases: NCI-60 cell line screen, 48 h
[1] = system: OVCAR-4 ovarian
[2] = system: HOP-62 NSCLC
[3] = system: NCI-H23 lung
[4] = system: SF-268 CNS
[5] = system: SN12C renal
[6] = system: SF-539 CNS
[7] = system: MCF7 breast
[8] = system: IGROV1 ovarian
[9] = system: HCC-2998 colon
[10] = system: RXF 393 renal

| Compound | GI50 [1] | TGI [1] | GI50 [2] | TGI [2] | GI50 [3] | TGI [3] | GI50 [4] | TGI [4] | GI50 [5] | TGI [5] | GI50 [6] | TGI [6] | GI50 [7] | TGI [7] | GI50 [8] | TGI [8] | GI50 [9] | TGI [9] | GI50 [10] | TGI [10] |
| --- | --- | --- | --- | --- | --- | --- | --- | --- | --- | --- | --- | --- | --- | --- | --- | --- | --- | --- | --- | --- |
| O=C(O)c1ccc(NCc2nc3ccccc3[nH]2)cc1 | > 100 µM | > 100 µM | > 100 µM | > 100 µM | > 100 µM | > 100 µM | > 100 µM | > 100 µM | > 100 µM | > 100 µM | > 100 µM | > 100 µM | 99.9 µM | > 100 µM | > 100 µM | > 100 µM | > 100 µM | > 100 µM | > 100 µM | > 100 µM |
| O=C(Nc1ccc(Oc2ccc(NC(=O)Nc3ccccc3Cl)cc2)cc1)Nc1ccccc1Cl | 2.71 µM | 24.4 µM | 12.4 µM | 34.1 µM | 3.61 µM | 18.5 µM | 8.11 µM | 55.1 µM | 7.55 µM | > 100 µM | 6 µM | 22.1 µM | 8.54 µM | > 100 µM | 3.57 µM | 14.8 µM | 8.47 µM | > 51.7 µM | 2.99 µM | 11.4 µM |
| COc1ccc2nc3cc(Cl)ccc3c(NCCNCC(O)CO)c2c1 (centres undefined) | 1.35 µM | 9.15 µM | 1.1 µM | 4.74 µM | 1.62 µM | 7.87 µM | 1.03 µM | 13.1 µM | 0.946 µM | 9.94 µM | 1.23 µM | 9.14 µM | 0.624 µM | 10.1 µM | 1.7 µM | 11.7 µM | 1.59 µM | 6.55 µM | 1.66 µM | 4.75 µM |
| Cc1cc(O[C@@H]2O[C@@H](C)[C@H](O)[C@@H](O)[C@H]2O)c2c3c(c(O[C@@H]4O[C@@H](C)[C@H](O)[C@@H](O)[C@H]4O)cc2c1)C(=O)c1c(O)cccc1C3=O | > 30 µM | > 30 µM | > 30 µM | > 30 µM | > 30 µM | > 30 µM | > 30 µM | > 30 µM | > 30 µM | > 30 µM | > 30 µM | > 30 µM | > 30 µM | > 30 µM | > 30 µM | > 30 µM | > 30 µM | > 30 µM | > 30 µM | > 30 µM |
| CCC(CC)c1cc(N[C@H]2CC[C@H](N)C2)n2nccc2n1 | 0.978 µM | 22.8 µM | 0.99 µM | > 100 µM | 2.2 µM | 8.29 µM | 2.44 µM | 13.9 µM | 0.691 µM | > 100 µM | 1 µM | 5.07 µM | 0.328 µM | > 100 µM | 2.38 µM | > 100 µM | 1.52 µM | 12 µM | 0.632 µM | 2.36 µM |
| CC1NC(C(=O)O)Cc2cc(O)c(O)cc21 (centres undefined) |  | > 100 µM |  | > 100 µM |  | > 100 µM |  | > 100 µM |  | > 100 µM |  | > 100 µM |  | > 100 µM |  | > 100 µM |  | > 100 µM |  | > 100 µM |
| COC1=CC(c2ccc[nH]2)=N/C1=C\c1[nH]c(C)c(C(=O)Oc2ccccc2)c1C | 0.236 µM |  | 0.71 µM | 3.86 µM | 0.227 µM | 1.95 µM |  |  | 0.387 µM | 2.41 µM | 0.36 µM | 1.63 µM | 0.272 µM | 1.49 µM |  |  | 0.243 µM | 1.42 µM | 0.267 µM | 1.78 µM |
| COc1ccc(C2=NN(C=O)C(c3ccc(OS(=O)(=O)c4ccc(C)cc4)c(OC)c3)C2)cc1 (centres undefined) |  |  | 9.47 µM | 74 µM | 4.58 µM | > 100 µM | 17.2 µM | > 100 µM | 65.9 µM | > 100 µM | 8.62 µM | > 100 µM | 3.7 µM | > 100 µM | 18.8 µM | > 100 µM | > 100 µM | > 100 µM | 3.81 µM | 46.8 µM |
| COc1ccc(N=N/C(=N\NC(=O)c2cc(Br)ccc2O)c2ccc(N(CCC#N)CCC#N)cc2OC)cc1 | 28.5 mg/L | 76 mg/L |  |  | 110 mg/L | > 150 mg/L | 30.1 mg/L | > 150 mg/L | 77.6 mg/L | > 150 mg/L | 80.8 mg/L | > 150 mg/L | 58.7 mg/L | > 150 mg/L | 39.6 mg/L | > 150 mg/L | 28.7 mg/L | 66.5 mg/L | 50.2 mg/L | > 150 mg/L |
| Cc1cc2c(C(=O)NCC#N)cccc2n1-c1nc2c(c(NCc3ccccc3)n1)CCCC2 | 0.322 µM | 1.76 µM |  |  | 0.285 µM | 1.19 µM | 0.34 µM | 1.35 µM | 0.31 µM | 0.904 µM | 0.249 µM | 0.764 µM | 0.25 µM | 8.17 µM | 0.315 µM | 1.24 µM | 0.178 µM | 0.357 µM | 0.225 µM | 0.541 µM |

— PubChem BioAssay (NCI)
